Read-outs that look alike come from different tables or passages of the source.
Columns and labels:
[1] = Metabolism stability assay, human liver microsomes; assay type: in vitro ADME; conditions: for metabolic stability (in words): from Table 7; for half-life at 1 µM: pH 7.4
Method: Assay 4: Metabolism Stability Assay 1. […] Buffer A: 1 L solution of 100 mM potassium dihydrogen phosphate containing 1 mM EDTA (Sigma, V900157-100G) was prepared. Buffer B: 1 L solution of 100 mM dipotassium hydrogen phosphate containing 1 mM EDTA was prepared. Buffer C: 700 mL of buffer B was taken out and titrated with buffer A to pH 7.4. 2. […] 2.2 20 μl (20 mg/mL) of liver microsomes (Corning Lot. NO. 4133007) stock solution was added to 513.4 μl of buffer C on wet ice. 0.75 mg/mL liver microsomal solution was obtained. 2.3 1.5 μl of each of the above-mentioned compound to be tested and ketanserin solution was added to 498.5 μl of liver microsomal solution (0.7 5 mg/mL) respectively on wet ice. 1.5 μM mixed solution of compound to be tested and 1.5 μM mixed solution of ketanserin were obtained. 2.4 At the time points 0, 5, 15, 30, 45, and 60 min, 30 μl of the mixed solution of compound to be tested and 30 μl of the mixed solution of ketanserin were dispensed into the reaction plate on wet ice, respectively. 2.5 5 mg reduced coenzyme II (Roche, 10621706001) was weighed and dissolved in 1 mL of buffer C. 6 mM reduced coenzyme II solution was obtained. The reduced coenzyme II solution was dispensed into the reaction plate. 2.6 Imipramine was dissolved to give a 10 mM solution. 10 μl of imipramine solution was added to 100 mL of blank acetonitrile to generate the internal reference. 2.7 At 0 min, 135 μL of iced acetonitrile (Merck (Lot. 1778229518)) containing the internal reference was added to each well and then 15 μL of buffer C was added. 2.8 The reaction plate was placed into a 37° C. water bath incubator for 5 min. In the reaction plate, 15 μL of reduced coenzyme II solution was added to each well to initiate the reaction, and the timing was started. At the time points of 5, 15, 30, 45, and 60 min, 135 μL of iced acetonitrile containing the internal reference was added to each well to terminate the reaction. 2.9 The reaction plate was sealed with an aluminum film, placed on a vibration mixer and shaken at 500 rpm for 5 min. The plate was then centrifuged in a centrifuge at 3750 rp for 15 min. 2.10 The sample was diluted with pure water in accordance with the ratio of 1:1 and detected by LC/MS. Half-life: 0.693/K (the slope by plotting based on the incubation time and logarithm of the concentration value) Clearance ratio: (0.693/half-life)*(1/protein concentration (0.5 mg/mL))*(proportional factor) Wherein, the K value and the proportional factor were calculated by those skilled in the art according to the methods described in the prior art and contained in the instructions of the liver microsome product.

hNav1.7 = target: T1, hNav1.7 (Homo sapiens, UniProt Q15858); test: Manual patch clamp experiment hNav1.7 (CHO-hNav1.7 stable cell line); assay type: cell-based; conditions: for inhibition at 0.1 µM: read-out: Inhibition of Nav1.7 100 nM(%); for inhibition at 1 µM: read-out: Inhibition of Nav1.7 1000 nM(%)
T1 construct: host or cells: CHO
T1 sequence (Q15858 whole entry): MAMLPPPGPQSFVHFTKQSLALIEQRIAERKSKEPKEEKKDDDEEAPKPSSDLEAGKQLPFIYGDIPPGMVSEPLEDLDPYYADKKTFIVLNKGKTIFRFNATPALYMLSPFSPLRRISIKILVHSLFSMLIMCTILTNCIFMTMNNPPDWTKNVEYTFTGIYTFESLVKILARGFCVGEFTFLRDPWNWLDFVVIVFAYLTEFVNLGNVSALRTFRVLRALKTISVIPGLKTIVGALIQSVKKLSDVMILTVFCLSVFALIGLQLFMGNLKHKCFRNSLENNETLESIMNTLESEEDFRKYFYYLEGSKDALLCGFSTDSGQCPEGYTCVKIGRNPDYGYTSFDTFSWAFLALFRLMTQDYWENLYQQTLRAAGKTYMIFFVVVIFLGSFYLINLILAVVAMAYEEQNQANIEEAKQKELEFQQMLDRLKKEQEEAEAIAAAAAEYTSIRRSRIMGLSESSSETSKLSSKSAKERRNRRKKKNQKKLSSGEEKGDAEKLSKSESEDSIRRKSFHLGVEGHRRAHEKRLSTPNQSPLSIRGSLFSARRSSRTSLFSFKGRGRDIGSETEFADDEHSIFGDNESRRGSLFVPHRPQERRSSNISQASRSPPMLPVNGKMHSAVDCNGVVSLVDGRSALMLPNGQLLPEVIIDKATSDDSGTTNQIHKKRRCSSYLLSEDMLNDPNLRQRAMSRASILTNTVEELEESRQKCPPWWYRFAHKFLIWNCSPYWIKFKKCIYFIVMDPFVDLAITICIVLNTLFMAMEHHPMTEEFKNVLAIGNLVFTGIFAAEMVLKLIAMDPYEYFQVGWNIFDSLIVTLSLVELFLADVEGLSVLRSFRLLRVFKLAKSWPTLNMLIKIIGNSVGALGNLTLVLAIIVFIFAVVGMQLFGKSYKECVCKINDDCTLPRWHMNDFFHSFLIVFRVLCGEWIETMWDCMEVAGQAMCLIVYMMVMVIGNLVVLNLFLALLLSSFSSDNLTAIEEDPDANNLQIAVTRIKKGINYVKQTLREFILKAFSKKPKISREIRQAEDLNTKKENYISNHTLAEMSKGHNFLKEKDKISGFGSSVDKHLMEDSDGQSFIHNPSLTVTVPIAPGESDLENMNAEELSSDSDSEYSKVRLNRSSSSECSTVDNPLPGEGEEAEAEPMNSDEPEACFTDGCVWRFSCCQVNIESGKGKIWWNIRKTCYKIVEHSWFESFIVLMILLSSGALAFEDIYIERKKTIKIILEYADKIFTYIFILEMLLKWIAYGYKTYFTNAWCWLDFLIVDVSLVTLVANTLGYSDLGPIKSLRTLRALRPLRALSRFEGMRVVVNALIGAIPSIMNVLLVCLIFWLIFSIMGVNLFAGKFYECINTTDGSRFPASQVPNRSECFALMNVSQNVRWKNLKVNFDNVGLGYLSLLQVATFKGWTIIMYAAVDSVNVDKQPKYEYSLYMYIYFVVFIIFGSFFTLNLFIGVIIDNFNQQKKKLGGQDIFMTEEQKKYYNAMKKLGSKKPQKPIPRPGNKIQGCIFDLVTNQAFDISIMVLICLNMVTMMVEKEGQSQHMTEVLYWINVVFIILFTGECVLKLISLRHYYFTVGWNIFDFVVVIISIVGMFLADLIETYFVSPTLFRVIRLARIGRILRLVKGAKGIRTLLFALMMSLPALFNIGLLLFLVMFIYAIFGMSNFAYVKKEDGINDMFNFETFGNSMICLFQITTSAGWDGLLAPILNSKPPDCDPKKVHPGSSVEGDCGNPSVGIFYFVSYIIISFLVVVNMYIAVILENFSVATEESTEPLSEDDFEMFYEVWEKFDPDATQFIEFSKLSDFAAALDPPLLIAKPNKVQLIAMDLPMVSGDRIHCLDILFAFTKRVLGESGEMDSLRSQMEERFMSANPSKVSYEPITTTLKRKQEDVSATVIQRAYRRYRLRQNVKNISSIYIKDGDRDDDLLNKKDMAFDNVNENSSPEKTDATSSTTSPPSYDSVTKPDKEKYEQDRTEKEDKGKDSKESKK
Excerpt: Assay 1: Manual Patch Clamp Experiment of Sodium Ion (hNav1.7, hNav1.5 and hNaV1.8) and Calcium Ion (hCav3.2) Channels
hNav1.7, hNav1.5 Manual Patch Clamp Experiment:
Patch voltage clamp electrophysiology allows for the direct measurement and quantification of current block of voltage-gated sodium channels (NaV's), and allows the determination of the time and voltage-dependence of block which has been interpreted as differential binding to the resting, open and inactivated states of the sodium channel to reflect the compound's inhibitory or activating effects (Hille, B., Journal of General Physiology (1977), 69: 497-515).
Representative compounds of the present invention were subject to a manual patch clamp experiment and the purpose of this study was to test the effect of compounds on this ion channel current on a stable cell line transfected with a specific ion channel using a manual patch clamp method. The used stable cell lines CHO-hNav1.7 and HEK-hNav1.5 were from Genionics and WuXi Apptec (Shanghai) respectively.
Manual patch clamp experimental program is as follows:
(1) Preparation of solutions and compounds: The whole cell patch clamp technique was used to record hNav1.7 and hNav1.5 currents. In the experiment, the composition of extracellular fluid (mM): HEPES: 5, NaCl: 40, KCl: CaCl2: 1, MgCl2: 1, CdCl2: 0.1, TEA-Cl: 20. The pH was adjusted to 7.3 with NaOH and the osmotic pressure was adjusted to 310-320 mOsm with sucrose, filtered and stored at 4° C. The composition of the intracellular fluid (mM): HEPES: 10, NaCl: 10, CsOH: 5, CsF: 140, EGTA: 1. The pH was adjusted to 7.3 with CsOH and the osmotic pressure was adjusted to 280-290 mOsm with sucrose, filtered and stored at −20° C.
The positive control and the test compound were firstly dissolved in 100% DMSO (Sigma-Aldrich, D2650), configured as stock solution at a concentration (100 nM, 1000 nM).) The above stock solution was serially diluted with DMSO prior to the experiment, the solution was further diluted with extracellular solution to obtain the test solution of the desired concentration.
(2) Manual Patch Clamp Experiment: The cell suspension was added to a 35 mm petri dish and placed on an inverted microscope stage. The cells were perfused with an extracellular fluid and the flow rate was 1-2 mL/min after cell adherence. The glass microelectrode was prepared in two steps by a microelectrode puller with an inlet water resistance of 2-5 MΩ. A/D-D/A digital-analog conversion was performed by Digidata 1440 (Molecular Devices) and pCLAMP software (version 10.2, Molecular Devices) for stimulation and signal acquisition; the signal was amplified by patch clamp amplifier (Multiclamp 700B, Molecular Devices), and filtering is 4 KHz.
Two different voltage stimulation procedures were used in the hNav1.7 and hNav1.5 manual patch clamp experiments.
One is the inactivation stimulation program, the clamp potential is set at V1/2 of the corresponding channel, i.e., about 50% of the channels are inactivated, then the voltage is applied to −120 mV for 50 ms, then depolarized to −10 mV for 20 ms leading to sodium current, and finally returned to the clamp potential. This stimulation program can also be called channel state-dependent voltage stimulation program.
The other is the non-inactivation stimulation program, the clamp potential is maintained at −120 mV, voltage stimulation is given to −10 mV for 20 ms leading to sodium current, and finally returned to the clamp potential. That is, all channels have not experienced inactivation status, but activate directly from the resting state under the conditions of the stimulation program.
The time intervals of these two voltage stimulation programs were 10 s. The inhibitory effect of the compound was calculated by the change of the current before and after dosing, the IC50 value was fitted by the Hill equation.

[2] = system: SNL-induced cold allodynia in rats; test: Cold allodynia in SNL (spinal nerve ligation) rats; assay type: in vivo, rat
Excerpt: Assay 3: Cold Allodynia in SNL
The experimental animals were male Sprague-Dawley rats, weighing 140-150 g at the beginning of the experiment. The animals were purchased from Slack company, and food and water were supplied ad lib after purchase. Rats were group-housed, four rats/cage, and individually identified by marking on the tail.
Test Compound and Grouping:
Vehicle: 5% dimethylacetamide(Sinopharm Technology), 5% solutol (Sigma) and 90% saline
Positive control: Pregabalin;
Test compound: compound Z-164;
The positive control and solvent composition of the test compound are 5% dimethylacetamide, 5% solutol and 90% saline.
30 mg/kg Compound Z-164:1.23 mL of dimethylacetamide was added to 148.11 mg of compound Z-164, stirred well until fully dissolved, and then 1.23 mL solutol was added and mixed well. Final volume was made up with 90% saline to 21.44 mL and mixed well before oral administration.
30 mg/kg Pregabalin: 1.08 mL of dimethylacetamide was added to 129.48 mg of Pregabalin, stirred well until fully dissolved, and then 1.08 mL solutol was added and mixed well. Final volume was made up with 90% saline to 21.58 mL and mixed well before oral administration.
1.1. Spinal Nerve Ligation (SNL) model • Surgical procedures are performed aseptically. • The surgical instruments (scissors, tweezers, scalpels, surgical cotton, sutures, retractor) are sterilized prior to surgery. • Animals were anesthetized with pentobarbital (50 mg/kg, i.p.). A toe pinch was used to ensure that the animals were fully anesthetized prior to surgery. Put ophthalmic ointment in the animal's eyes to prevent the corneas from drying out. • The fur on the surgical area of animal's lower body was shaved, and the skin of the surgical area was swabbed with 3 rounds of Betadine and 70% ethanol. The skin was allowed to dry before surgery. • A longitudinal incision will be made by scalpel at the lower lumbar and sacral levels, exposing the paraspinal muscles on the left side. The retractor was used to separate the muscles and tissues to expose the vertebra. • The left L5 and L6 spinal nerves will be isolated and tightly ligated with 6-0 silk thread. • The wound was closed with sutures. • The surgical instruments were cleaned, and sterilized by using a glass bead sterilizer. • Animals were placed on the electric blanket after surgery. Inject 5 ml sterile saline to prevent dehydration. The animals were returned to their home cage after fully awake (walking around).
1.2. Baseline Test of Cold Allodynic and Grouping
The baseline of cold allodynic was measured in rats two days before dosing. Use a pipette to apply 100 μl of acetone to the animal's lateral hind paw skin and the time of slapping, flinching, lifting, licking of the affected paw were recorded for one minute. Acetone was applied twice in total and the two applications were 10 minutes apart. The sum of the two times was recorded as cold allodynic time in rats. The rats were grouped randomized according to the results of baseline test of cold allodynic the day before dosing.
1.3. Cold Allodynic Testing
A pipette was used to apply 100 μl of acetone to the animal's lateral hind paw skin two hours after dosing and the time of slapping, flinching, lifting, licking of the affected paw were recorded for one minute. Acetone was applied twice and the two applications were 10 minutes apart. The sum of the two times was recorded as cold allodynic time in rats.
Oral administration was performed two hours before cold allodynic testing.
1.5. Data Collection and Analysis
Data were collected with Excel and analyzed with Prism.

[3] = 30 mg/kg p.o., two hours after dosing

Row | Structure (SMILES) | Clearance [1] [mL/min/kg] | half-life at 1 µM [1] [h] | inhibition at 0.1 µM (hNav1.7; compound at 100 nM) [%] | inhibition at 1 µM (hNav1.7; compound at 1000 nM) [%] | further results
1 | CS(=O)(=O)NC(=O)c1cc(Cl)c(CN2CCN(c3ccc(C4CC4)c(Cl)c3)CC2)cc1F [Compound C12, reference compound] | 78.28 | 0.37 | – | – | metabolic stability (in words) [1]: significantly reduced
2 | Cc1cc(N2CCN(Cc3cc(F)c(C(=O)NS(C)(=O)=O)cc3Cl)CC2)ccc1Cl [Compound C13, reference compound] | 138.91 | 0.208 | – | – | metabolic stability (in words) [1]: significantly reduced
3 | O=C(NS(=O)(=O)C1CC1)c1cc(Cl)c(OC[C@H]2CCCN2c2ccc(C(F)(F)F)cc2)cc1F [Compound Z-80, (R)-5-chloro-N-(cyclopropylsulfonyl)-2-fluoro-4-((1-(4-(trifluoromethyl)phenyl)pyrrolidine-2-yl)methoxy)benzamide] | 36.37 | 0.796 | 90.5 | 96.8 | –
4 | O=C(NS(=O)(=O)C1CC1)c1cc(Cl)c(CN2CCN(c3ccc(Cl)c(Cl)c3)CC2)cc1F [Compound Z-89, 5-chloro-N-(cyclopropylsulfonyl)-4-((4-(3,4-dichlorophenyl)piperazin-1-yl)methyl)-2-fluorobenzamide] | 6.49 | 4.46 | – | – | inhibition at 0.1 µM (hNav1.7): 94.8%; inhibition at 1 µM (hNav1.7): 99.7%
5 | O=C(NS(=O)(=O)C1CC1)c1cc(Cl)c(CN2CCN(c3ccc(OC(F)(F)F)c(Cl)c3)CC2)cc1F [Compound Z-92] | 0.07 | 420 | 94.5 | 97.3 | –
6 | O=C(NS(=O)(=O)C1CC1)c1cc(Cl)c(OC2CCN(c3ccc(Cl)c(Cl)c3)CC2)cc1F [Compound Z-117, 5-chloro-N-(cyclopropylsulfonyl)-4-((1-(3,4-dichlorophenyl)piperidin-4-yl)oxy)-2-fluorobenzamide] | 5.41 | 5.36 | 89.3 | 96.1 | –
7 | O=C(NS(=O)(=O)C1CC1)c1cc(Cl)c(OC[C@H]2CCCN2c2ccc(C(F)(F)F)nc2)cc1F [Compound Z-119, (R)-5-chloro-N-(cyclopropylsulfonyl)-2-fluoro-4-((1-(6-(trifluoromethyl)pyridin-3-yl)pyrrolidin-2-yl)methoxy) benzamide] | 22.57 | 1.28 | – | – | –
8 | O=C(NS(=O)(=O)C1CC1)c1cc(Cl)c(CN2CCN(c3ccc(OC(F)(F)F)cn3)CC2)cc1F [Compound Z-159] | 3.69 | 7.84 | 90.6 | 97.3 | –
9 | Cc1cc(C(=O)NS(=O)(=O)C2CC2)c(F)cc1OC[C@H]1CCCN1c1ccc(C(F)(F)F)cn1 [Compound Z-195] | 20.86 | 1.39 | 76.7 | 92.7 | –
10 | CC(C)C[C@H](CN)CC(=O)O [Positive control, Pregabalin, reference compound] | – | – | – | – | Anti-allodynia Effect (mean, %) [2, 3]: 74.9%; Response duration (mean, s) the next day (Baseline) [2, 3]: 13.005 s; inhibition of SNL-induced cold allodynia (in words) ([2]; 30 mg/kg, 2 hr post oral administration): inhibition of SNL-induced cold allodynia; Response duration (mean, s) the first day (Baseline) ([2]; acetone cold allodynia, baseline before dosing): 36.847 s

— patent publication US10815197B2, “N-sulfonyl benzamides as voltage-gated sodium channel inhibitors” (SHANGHAI HAIYAN PHARMACEUTICAL TECHNOLOGY CO., LTD., priority 2016, dated 2020)
